Results published in patent US20210145830A1, “MATERIALS AND METHODS FOR TREATING CANCER” (Mayo Foundation for Medical Education and Research, priority 2018, published 2021).
“Also recorded” adds a separate entry of the source.

Tests used:
Naïve T cells = experiment: Inhibitory receptor expression in stimulated naïve T cells; type: cell-based; details: PMA/Ionomycin
Description: FIGS. 19A-F. A. Inhibitory receptors expression in naïve T cells after TCR activation with CD3 stimulation in the increasing dose of TP0903. Naïve T cells were incubated with anti CD3/CD28 beads at a 1 to 3 ratio in the presence of TP0903. At day 3, T cells were stained with PD-1, TIM-3, LAG-3, and ICOS. […] Teff cells were isolated by negative selection using Human T Cell Isolation Kit. Tregs were isolated by negative selection using the human CD4^+CD127^lowCD25^+ Treg isolation kit. Teff and Treg were stimulated with anti CD3/CD28 beads and 400 U/ml of IL-2. At day 5, total T cells were evaluated via CountBright quantification. C. CART19 cytokine assay in the presence TP0903. UTDs or CART19 were incubated with Jeko in the presence of TP-0903 at a 1 to 1 ratio. Supernatant was harvested and analyzed by 32-plex Luminex array after 3 days. D. Inhibitory receptors expression in CART19 cells in the presence TP0903. UTDs or CART19 were incubated with Jeko at a 1 to 1 E/T ratio in the presence of TP0903. At day 5, T cells were stained with PD-1 (left), LAG-3 (right), and TIM-3. […] Cell killing was assessed by luminescence at 24 hours. […]
FIG. 21A-E. TP0903 modulates naïve T cells function upon stimulation of PMA/Ionomycin in vitro. […] At day 5, total T cells were evaluated via CountBright quantification.

JeKo = experiment: MCL (JeKo) xenograft in NSG mice with re-challenge; type: in vivo
Description: FIGS. 19A-F. A. Inhibitory receptors expression in naïve T cells after TCR activation with CD3 stimulation in the increasing dose of TP0903. Naïve T cells were incubated with anti CD3/CD28 beads at a 1 to 3 ratio in the presence of TP0903. At day 3, T cells were stained with PD-1, TIM-3, LAG-3, and ICOS. […] Teff cells were isolated by negative selection using Human T Cell Isolation Kit. Tregs were isolated by negative selection using the human CD4^+CD127^lowCD25^+ Treg isolation kit. Teff and Treg were stimulated with anti CD3/CD28 beads and 400 U/ml of IL-2. At day 5, total T cells were evaluated via CountBright quantification. C. CART19 cytokine assay in the presence TP0903. UTDs or CART19 were incubated with Jeko in the presence of TP-0903 at a 1 to 1 ratio. Supernatant was harvested and analyzed by 32-plex Luminex array after 3 days. D. Inhibitory receptors expression in CART19 cells in the presence TP0903. UTDs or CART19 were incubated with Jeko at a 1 to 1 E/T ratio in the presence of TP0903. At day 5, T cells were stained with PD-1 (left), LAG-3 (right), and TIM-3. E. CART19 cytotoxicity in the presence TP0903: CART19 or UTDs were co-cultured at different effector-to-target ratios (E:T) with luciferase-positive Jeko in the presence of increasing doses of TP0903. Cell killing was assessed by luminescence at 24 hours. F. TP0903 enhanced CART cell persistence in vivo. NSG mice were injected with 1.0×10^6 luciferase-positive JeKo on day −7. At day 0, mice were randomized according to tumor burden to receive vehicle, TP0903 20 mg/kg/day, […] CART19, or TP0903 20 mg/kg/day+0.5×10^6 CART19. At day 21, mice were re-challenged with JeKo.
FIG. 25A-E. Impact of the combinatory therapy in vivo. A. Schema for in vivo experiment. B and C. […] D. Reduction of MCP-1, which is known as CRS related cytokine in the presence of TP0903. E. Expansion of circulating CART19 after re-challenging Luciferase positive JeKo-1.
NOD-SCID-γ chain−/− (NSG) originally obtained from Jackson Laboratories were maintained in our laboratory under an IACUC approved breeding protocol. Schemas of the utilized xenograft models are discussed in detail in the relevant figures and the Results section. Cells were injected in 200 μL of phosphate-buffered saline at the indicated concentration into the tail veins of mice. Bioluminescent imaging was performed using a Xenogen IVIS-200 Spectrum camera. Images were acquired and analyzed using Living Image version 4.4 (Caliper LifeSciences, Inc., PerkinElmer).
To investigate the effect of AXL RTK inhibition of CART cells with TP0903 in vivo, MCL xenografts were established through the injection of 1.0×10^6 of JeKo into NSG mice. A week after the injection of JeKo, mice were treated with either vehicle alone, TP0903 (20 mg/kg/day) alone, 0.5×10^6 of CART19 alone, or TP0903 (20 mg/kg/day)+0.5×10^6 of CART19. Three weeks after the treatment, mice were rechallenged with 1.0×10^6 of JeKo.

CART cells = experiment: In vitro CART19 exhaustion assay; type: cell-based
Description: (§1) FIG. 11 contains an exemplary timeline for an in vitro CART19 exhaustion assay in the presence of TP0903. T cells were incubated with target cells at a 1:5 ratio (experiments were done using JEKO cells as well as primary B cells). The low E:T ratio was used to induce a state of dysfunction of CART cells. Cells were cultured in the presence of increasing doses of TP0903. On day 5 of co-culture, cells were harvested, and expression of inhibitory receptors was analyzed. Co-culture in the presence of TP0903 reduces expression of PD1, TIM3, and LAG3 inhibitory receptors.
as §1, with “T” for “FIG. 11 contains an exemplary timeline for an in vitro CART19 exhaustion assay in the presence of TP0903. T”, “reduced” for “reduces”, “receptors. TP0903 reduced exhaustion receptors on CART cells (FIG. 12).” for “receptors.”

SMILES: CN1CCN(Cc2ccc(Nc3ncc(Cl)c(Nc4ccccc4S(=O)(=O)N(C)C)n3)cc2)CC1 [TP0903]
- inhibitory receptors (PD-1, LAG-3, TIM-3, and ICOS) (Naïve T cells; day 3, high dose TP0903): significantly downregulated
- inhibitory receptors (Naïve T cells; low dose TP0903): significant reduction
- outcome of JeKo re-challenge (JeKo; TP0903 20 mg/kg/day + 0.5×10^6 CART19, re-challenge at three weeks): successfully rejected
- CART cell persistence in vivo (JeKo; TP0903 20 mg/kg/day + CART19): enhanced
- tumor burden (JeKo; combination of CART19 and TP0903 vs CART19 monotherapy): superior low tumor burden
- circulating CART19 (JeKo; combination, after re-challenging Luciferase positive JeKo-1): Expansion
- MCP-1 (CRS related cytokine) (JeKo; in vivo, in the presence of TP0903): Reduction
- expression of PD1, TIM3, and LAG3 inhibitory (exhaustion) receptors on CART cells (CART cells; 1:5 E:T, JEKO or primary B cells, increasing doses of TP0903, day 5): reduces; also recorded: downregulated in a dose depended manner
- inhibitory receptors on activated CART cells (CART cells; CART19 with Jeko, Example 2): significantly downregulated
